US20240369576A1, “ASSAYS FOR ALPHA-DYSTROGLYCAN GLYCOSYLATION AND METHODS FOR USING SAME” (ML Bio Solutions Inc., priority 2023, published 2024)
“Also recorded” adds a separate entry of the source.

Key:
patients with LGMD2I/R9 [1] = test: Open label Phase 2 study of ribitol in LGMD2I/R9: safety and tolerability; assay type: in vivo, human
Text: Objectives: The Phase 2 study is intended to explore the safety and tolerability of ribitol. Additionally, the feasibility and usefulness of clinical efficacy and pharmacodynamic (PD) assessments in patients with LGMD2I receiving ascending doses of ribitol will be investigated.
Methods: This study is an open label dose escalation study of patients with LGMD2I/R9. Part 1 of the study involved three dose cohorts (6 g QD, 6 g BID and 12 g BID) treated for 3 months. During Parts 2 (target maximal dose) and 3 (ongoing OLE), all patients received 12 g BID, dose adjusted for lower weight.
FIG. 17 schematically illustrates the details of the clinical study. Briefly, the study includes 3 parts: a 90 day dose escalation phase (Part 1), a 90 day maximum dose phase (Part 2), and a 24 month long term extension phase (Part 3). In Part 1, 14 total patients are studied across three cohorts (6 g QD, 6 g BID, and 12 g BID ribitol). After Part 1, all patients transition to the highest dose, 12 g BID ribitol. Dosing adjustments in Part 2 were as follows: for patients with weight >70 kg: 12 g BID; for patients with weight between 50-70 kg: 9 g BID; and for patients with weight between 30-50 kg: 6 g BID. Dosing adjustments in Part 3 were as follows: for patients with weight >50 kg: 12 g BID; and for patients with weight between 30-50 kg: 9 g BID.
Key inclusion criteria for the study include age between 12-55 years at enrollment; genetically confirmed LGMD2I/R9 diagnosis; body weight of at least 30 kg; and ability to complete a […] walk test in <12 seconds unaided for moderate disease, or unable to complete the 10MWT for severe disease.

patients with LGMD2I/R9 [2] = test: Open label Phase 2 study of ribitol in LGMD2I/R9: ambulatory and clinical measures (NSAD, 10MWT, 100MTT); assay type: in vivo, human; details: following 15 months of ribitol treatment, vs natural history decline
Text: (§1) Methods: This study is an open label dose escalation study of patients with LGMD2I/R9. Part 1 of the study involved three dose cohorts (6 g QD, 6 g BID and 12 g BID) treated for 3 months. During Parts 2 (target maximal dose) and 3 (ongoing OLE), all patients received 12 g BID, dose adjusted for lower weight. FIG. 17 schematically illustrates the details of the clinical study. Briefly, the study includes 3 parts: a 90 day dose escalation phase (Part 1), a 90 day maximum dose phase (Part 2), and a 24 month long term extension phase (Part 3). In Part 1, 14 total patients are studied across three cohorts (6 g QD, 6 g BID, and 12 g BID ribitol). After Part 1, all patients transition to the highest dose, 12 g BID ribitol. Dosing adjustments in Part 2 were as follows: for patients with weight >70 kg: 12 g BID; for patients with weight between 50-70 kg: 9 g BID; and for patients with weight between 30-50 kg: 6 g BID. Dosing adjustments in Part 3 were as follows: for patients with weight >50 kg: 12 g BID; and for patients with weight between 30-50 kg: 9 g BID. Key inclusion criteria for the study include age between 12-55 years at enrollment; genetically confirmed LGMD2I/R9 diagnosis; body weight of at least 30 kg; and ability to complete a 10 minute walk test in <12 seconds unaided for moderate disease, or unable to complete the 10MWT for severe disease. Key endpoints for the study include NSAD; 10 or 100 meter walk test; FVC; PUL2.0; glycosylated αDG levels; and serum creatine kinase (CK).

[3] = tested on: serum creatine kinase (CK); test: Open label Phase 2 study of ribitol in LGMD2I/R9: serum creatine kinase; assay type: in vivo, human
Text: as §1, with “Key” for “Key inclusion criteria for the study include age between 12-55 years at enrollment; genetically confirmed LGMD2I/R9 diagnosis; body weight of at least 30 kg; and ability to complete a 10 minute walk test in <12 seconds unaided for moderate disease, or unable to complete the 10MWT for severe disease. Key”

[4] = tested on: alpha-DG glycosylation in LGMD2I mouse models; details: cited from earlier work
[5] = tested on: αDG glycosylation in P448L mutant FKRP mice; test: Multiplexed Western blot of total and glycosylated αDG in muscle of P448L mutant FKRP mice treated with 5% Ribitol; assay type: in vivo, mouse; details: 5% Ribitol treated P448L mice vs untreated P448L mice, heart muscle and TA lysates
Experimental: Murine Mouse Tissue: Murine muscle tissue samples from healthy, [MUT], and […] mutant mice were stored at -80° C. until analysis. Tissue Processing: Tissue samples were processed using a TissueLyzer IITM (Qiagen®). Approximately 250 milligrams (mg) of tissue was placed in a 2 mL microtube with a steel bead and 1 mL of Radioimmunoprecipitation assay buffer (RIPA) buffer supplemented with protease and phosphatase inhibitors. The microtubes were subjected to three cycles of disruption (2 minutes at 25 Hertz (Hz)) in the TissueLyzer IITM. Lysates were clarified by centrifugation and the supernatant was transferred to fresh tubes and protein concentration in lysate was determined using a BCA assay (Pierce®). […] The membrane was visualized on an Odyssey CLxTM imager (LiCorTM) and intensities of the 700 and 800 nm channels were recorded. […] Signal intensities were normalized to total protein and the ratio of 700 nm normalized signal/800 nm normalized signal was determined. Linear fits were assessed where applicable using the linear regression function of PrismTM. Statistical significance was determined using an unpaired t-test using PrismTM (e.g., using the p-value for the parameters slope and intercept). StainFree gel image is quantitated using ImageLabTM software to analyze the image from the ChemiDocTM Imaging System. […] Linear fits were assessed were applicable using a linear regression function. […]

glycosylated αDG = test: Open label Phase 2 study of ribitol in LGMD2I/R9: glycosylated αDG in tibialis anterior biopsies by Western blot; assay type: in vivo, human
Experimental: Tissue Lysis and sample preparation: Tissue samples were processed in lysis buffer, supplemented with protease inhibitors. Total protein in lysate was determined by BCA (Thermo Fisher) for RIPA and protein 660 kit (Thermo Fisher) for SDS-Urea and tested at 60 μg for CP Heterozygous samples and 40 μg for Homozygous samples. Differential protein loading is used for different patients to compensate for patient deficits in glycosylated αDG. […] Loading additional protein helps compensate for this deficiency and allows the assay to detect lower-level ranges. This is further stratified by patient genotype: more severe patients require greater protein loading. Western Blotting: For detection of target proteins αDG-Total and αDG-Glycan, membrane was probed simultaneously with primary antibodies AF6868 alpha Dystroglycan (R&D Systems) and IIH6C4 alpha Dystroglycan (Millipore), followed by fluorescent secondary antibodies IR800CW Mouse Anti-Sheep and IR680 Goat Anti-Mouse secondary antibodies (LiCor). The membrane was visualized in Odyssey CLx imager (LiCor) and intensities of the 700 (αDG-Glycan, red bands) and 800 (αDG-Total, green bands) nm channels were recorded. […] Here, amounts of glycosylated and total αDG are determined using standard curves, and an interpolated ratio is computed by dividing the amount of glycosylated αDG to the amount of total αDG. Data Analysis: Integration boxes were drawn using Image Studio software with specific dimensions over molecular weight range for standards, test articles and control samples. Data analysis was done in Excel (Microsoft). […] Healthy positive control (HPC) at 10 μg was deployed to monitor assay performance. […] FIG. 12 schematically illustrates a workflow for the Western Blot method. Briefly, biopsies are collected from a subject at a desired timepoint and homogenized. Gel electrophoresis is performed, followed by membrane transfer and blocking. Sample is incubated with the primary antibody followed by the secondary antibody. Detection and analysis are subsequently performed. […] A broader region of 70-260 kDa was used in prior iterations of the assay, including that described in Example 2 herein. […] Multiple sections of a single healthy donor TA biopsy sample are homogenized and the resulting lysate is pooled together and stored in single use aliquots at −80° C. These aliquots are used to generate a standard curve which is used in every assay. In addition, a quality control of 10 μg lysate is used to assess assay performance by measuring interpolatability to the standard curve. Methods: This study is an open label dose escalation study of patients with LGMD2I/R9. Part 1 of the study involved three dose cohorts (6 g QD, 6 g BID and 12 g BID) treated for 3 months. During Parts 2 (target maximal dose) and 3 (ongoing OLE), all patients received 12 g BID, dose adjusted for lower weight. FIG. 17 schematically illustrates the details of the clinical study. Briefly, the study includes 3 parts: a 90 day dose escalation phase (Part 1), a 90 day maximum dose phase (Part 2), and a 24 month long term extension phase (Part 3). In Part 1, 14 total patients are studied across three cohorts (6 g QD, 6 g BID, and 12 g BID ribitol). After Part 1, all patients transition to the highest dose, 12 g BID ribitol. Dosing adjustments in Part 2 were as follows: for patients with weight >70 kg: 12 g BID; for patients with weight between 50-70 kg: 9 g BID; and for patients with weight between 30-50 kg: 6 g BID.

[6] = maximum change over 3-15 months of treatment, FIG. 19

## OC[C@@H](O)[C@@H](O)[C@@H](O)CO [ribitol, (2R,3S,4S)-Pentane-1,2,3,4,5-pentol]
Patients with LGMD2I/R9 [1]; 15 months of treatment
  adverse events leading to discontinuation or interruption in therapy: No adverse event led to a discontinuation or interruption in therapy
Patients with LGMD2I/R9 [1]; 75% grade 1, 25% grade 2
  diarrhea, possibly or probably treatment-related: 6 incidents
Patients with LGMD2I/R9 [1]; across a range of ribitol dose levels
  treatment-related serious adverse events, dose limiting toxicities or discontinuations: no observed treatment-related serious adverse events, dose limiting toxicities or discontinuations
Patients with LGMD2I/R9 [1]; both grade 1
  nausea, possibly or probably treatment-related: 2 incidents
  vomiting, possibly or probably treatment-related: 2 incidents
Patients with LGMD2I/R9 [1]; during the course of the study
  adverse events possibly or probably related to ribitol treatment: 12
Patients with LGMD2I/R9 [1]; during the course of the study, 14 patients
  adverse events recorded: 136
Patients with LGMD2I/R9 [1]; grade 1
  dehydration, possibly or probably treatment-related: 1 incident
  dyspepsia, possibly or probably treatment-related: 1 incident
Patients with LGMD2I/R9 [1]; grade 2
  gastroenteritis, possibly or probably treatment-related: 1 incident
  headaches, possibly or probably treatment-related: 1 incident
Patients with LGMD2I/R9 [1]; over 15 months of treatment
  tolerability: well-tolerated; also recorded: well tolerated
Patients with LGMD2I/R9 [1]; unrelated to the treatment
  severe adverse events: 3
Patients with LGMD2I/R9 [2]
  10MWT velocity: improvements
  100MTT: improvements
  NSAD: improvements
Patients with LGMD2I/R9 [2]; listed as Ribitol
  10MWT velocity: improvement
  100MTT: improvement
  NSAD: improvement
[3]; after 3 months of treatment, FIG. 20
  change in serum CK: notable change
[3]; over 15 months of ribitol treatment
  sustained reduction in serum creatine kinase (CK): > 75%
[4]
  alpha-DG glycosylation: increase
[5]; FIG. 6B
  αDG expression (total αDG signal, ~50-250 kDa): increased
[5]; FIG. 6C
  ratio of glycosylated αDG to total αDG: increased
Glycosylated αDG; LGMD2I/R9 patients, oral ribitol 6 g QD to 12 g BID, after 90 days, sustained over 15 months
  change in glycosylated αDG vs baseline: approximate doubling; also recorded: approximately double
Glycosylated αDG; Phase 2, 3 months, sustained over 15 months
  levels of glycosylated αDG at 3 months: increased
Glycosylated αDG; both L276I homozygous and other FKRP genotype LGMD2I/R9 patients
  change in glycosylated αDG by genotype: Approximate doubling
Glycosylated αDG; [6]
  patients with a ≥100% increase (doubling) in glycosylated αDG levels vs pre-treatment: 10 of 14
  patients with increased glycosylated αDG levels vs pre-treatment baseline: 13 of 14
Glycosylated αDG; treatment with ribitol, FIGS. 13A-13B
  αDG glycosylation in LGMD2I/R9 muscle biopsies: dramatically increases
